Laboratory results taken from patent US7285564B2, “Substituted 4-amino-1-(pyridylmethyl)piperidine and related compounds” (Theravance, Inc., priority 2002, dated 2007).

Biological target: T1, hM3 muscarinic receptor subtype (Homo sapiens, UniProt P20309)
T1 construct: expressed in transfected cells; membranes prepared
Assay: Radioligand binding assay, hM3 relative to hM2
Conditions: ratio of Ki values from radioligand displacement
Description: CHO (Chinese hamster ovary) cell lines stably expressing cloned human hM1, hM2, hM3 and hM4 muscarinic receptor subtypes, respectively, were grown to near confluency in medium consisting of HAM's F-12 supplemented with 10% FBS (Fetal Bovine Serum) and 250 μg/mL Geneticin. The cells were grown in a 5% CO2, 37° C. incubator and lifted with dPBS+2 mM EDTA. Cells were collected by 5 minute centrifugation at 650×g, and cell pellets were either stored frozen at −80° C. or membranes were prepared immediately. For membrane preparation, cell pellets were resuspended in lysis buffer and homogenized with a Polytron PT-2100 tissue disrupter (Kinematica AG; 20 seconds×2 bursts). Crude membranes were centrifuged at 40,000×g for 15 minutes at 4° C. […] Protein concentration of the membrane suspension was determined by the method of Lowry, O. et al., (1951) […]: 193, 265. […]
Radioligand binding assays were performed in 96-well microtiter plates in a total assay volume of 100 μL. […] Filter plates were rinsed three times with wash buffer (10 mM HEPES) to remove unbound radioactivity. […] The plates were then counted in a PerkinElmer Topcount liquid scintillation counter (PerkinElmer Inc., Wellesley, Mass.). Binding data were analyzed by nonlinear regression analysis with the GraphPad Prism Software package (GraphPad Software, Inc., San Diego, Calif.) using the one-site competition model. […]

T1 sequence (P20309 whole entry): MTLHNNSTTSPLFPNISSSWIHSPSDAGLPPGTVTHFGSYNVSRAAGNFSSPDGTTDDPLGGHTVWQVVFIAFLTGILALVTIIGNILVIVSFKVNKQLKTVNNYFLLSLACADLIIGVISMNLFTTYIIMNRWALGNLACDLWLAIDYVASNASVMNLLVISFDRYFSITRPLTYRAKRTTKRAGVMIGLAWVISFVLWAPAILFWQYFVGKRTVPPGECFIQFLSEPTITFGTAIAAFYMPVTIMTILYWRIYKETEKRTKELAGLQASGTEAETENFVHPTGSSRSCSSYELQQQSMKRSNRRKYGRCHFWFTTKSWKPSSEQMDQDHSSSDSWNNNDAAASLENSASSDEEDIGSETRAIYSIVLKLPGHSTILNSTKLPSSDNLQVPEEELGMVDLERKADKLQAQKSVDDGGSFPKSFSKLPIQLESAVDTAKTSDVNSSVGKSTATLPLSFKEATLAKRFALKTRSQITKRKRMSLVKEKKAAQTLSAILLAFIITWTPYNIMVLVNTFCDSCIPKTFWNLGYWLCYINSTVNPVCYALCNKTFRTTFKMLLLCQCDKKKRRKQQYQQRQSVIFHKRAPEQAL

COc1ccncc1CN1CCC(N(CCCCCCCN2CC[C@@H](C(C(N)=O)(c3ccccc3)c3ccccc3)C2)C(C)C)CC1 [Example 1]
hM3/hM2 ratio: greater than 40
